Results from the supplement of paper PMC10307832.

Experiments:
Assay in all cases: relative viability (nuclei count vs DMSO), 5 days (fraction); higher = more cells survive
Doramapimod + Tozasertib = compound: Cc1ccc(-n2nc(C(C)(C)C)cc2NC(=O)Nc2ccc(OCCN3CCOCC3)c3ccccc23)cc1 [Doramapimod] + Cc1cc(Nc2cc(N3CCN(C)CC3)nc(Sc3ccc(NC(=O)C4CC4)cc3)n2)n[nH]1 [Tozasertib] (partner 0.1 µM)
Summary of the method: (§1)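 Five library-drug doses in √10 steps were combined with a fixed anchor-drug dose, or a single drug was given alone, by pin tool to lung cancer cell lines in 1536-well plates the day after seeding. Nuclei were stained and counted after 5 days. Relative viability is the nuclei count in treated wells over that in vehicle wells, taken as the median of duplicate plates.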

RAF265 + Palbociclib = compound: Cn1c(Nc2ccc(C(F)(F)F)cc2)nc2cc(Oc3ccnc(-c4ncc(C(F)(F)F)[nH]4)c3)ccc21 [RAF265] + CC(=O)c1c(C)c2cnc(Nc3ccc(N4CCNCC4)cn3)nc2n(C2CCCC2)c1=O [Palbociclib] (partner 0.5 µM)
Summary of the method: as §1

RAF265 + Alpelisib = compound: Cn1c(Nc2ccc(C(F)(F)F)cc2)nc2cc(Oc3ccnc(-c4ncc(C(F)(F)F)[nH]4)c3)ccc21 [RAF265] + Cc1nc(NC(=O)N2CCC[C@H]2C(N)=O)sc1-c1ccnc(C(C)(C)C(F)(F)F)c1 [Alpelisib] (partner 2 µM)
Summary of the method: as §1

RAF265 + Decitabine = compound: Cn1c(Nc2ccc(C(F)(F)F)cc2)nc2cc(Oc3ccnc(-c4ncc(C(F)(F)F)[nH]4)c3)ccc21 [RAF265] + Nc1ncn([C@H]2C[C@H](O)[C@@H](CO)O2)c(=O)n1 [Decitabine] (partner 2 µM)
Summary of the method: as §1

Cell Line | relative viability (Doramapimod + Tozasertib; first compound 0.02 µM) | relative viability (Doramapimod + Tozasertib; first compound 0.06325 µM) | relative viability (Doramapimod + Tozasertib; first compound 0.2 µM) | relative viability (Doramapimod + Tozasertib; first compound 0.6325 µM) | relative viability (Doramapimod + Tozasertib; first compound 2 µM) | relative viability (RAF265 + Palbociclib; first compound 0.01 µM) | relative viability (RAF265 + Palbociclib; first compound 0.03162 µM) | relative viability (RAF265 + Palbociclib; first compound 0.1 µM) | relative viability (RAF265 + Palbociclib; first compound 0.3162 µM) | relative viability (RAF265 + Palbociclib; first compound 1 µM) | relative viability (RAF265 + Alpelisib; first compound 0.01 µM) | relative viability (RAF265 + Alpelisib; first compound 0.03162 µM) | relative viability (RAF265 + Alpelisib; first compound 0.1 µM) | relative viability (RAF265 + Alpelisib; first compound 0.3162 µM) | relative viability (RAF265 + Alpelisib; first compound 1 µM) | relative viability (RAF265 + Decitabine; first compound 0.01 µM) | relative viability (RAF265 + Decitabine; first compound 0.03162 µM) | relative viability (RAF265 + Decitabine; first compound 0.1 µM) | relative viability (RAF265 + Decitabine; first compound 0.3162 µM) | relative viability (RAF265 + Decitabine; first compound 1 µM)
NCI-H838 | 0.299 | 0.27 | 0.285 | 0.253 | 0.257 | 0.203 | 0.222 | 0.193 | 0.176 | 0.154 | 1.03 | 0.974 | 1.01 | 1.06 | 0.692 | 0.516 | 0.49 | 0.494 | 0.466 | 0.391
LK-2 | 0.186 | 0.182 | 0.18 | 0.179 | 0.192 | 0.558 | 0.679 | 0.722 | 0.804 | 0.364 | 1.07 | 1.08 | 1.18 | 0.655 | 0.778 | 0.385 | 0.339 | 0.348 | 0.316 | 0.179
NCI-H322M | 0.519 | 0.487 | 0.532 | 0.497 | 0.531 | 0.474 | 0.498 | 0.425 | 0.381 | 0.326 | 0.811 | 0.784 | 0.544 | 0.28 | 0.265 | 0.704 | 0.667 | 0.593 | 0.495 | 0.395
NCI-H661 | 0.36 | 0.353 | 0.342 | 0.366 | 0.346 | 0.457 | 0.408 | 0.337 | 0.326 | 0.344 | 0.865 | 0.586 | 0.563 | 0.47 | 0.241 | 0.692 | 0.527 | 0.435 | 0.442 | 0.378
NCI-H1395 | 0.765 | 0.778 | 0.783 | 0.761 | 0.717 | 0.634 | 0.56 | 0.567 | 0.597 | 0.437 | 1.07 | 0.993 | 1.04 | 0.835 | 0.792 | 0.753 | 0.664 | 0.66 | 0.707 | 0.549
NCI-H520 | 0.483 | 0.441 | 0.402 | 0.42 | 0.382 | 0.264 | 0.218 | 0.239 | 0.191 | 0.155 | 0.819 | 0.754 | 0.889 | 0.916 | 0.534 | 0.567 | 0.418 | 0.478 | 0.452 | 0.345
NCI-H441 | 0.719 | 0.63 | 0.576 |  | 0.622 | 0.212 | 0.237 | 0.233 | 0.171 | 0.183 | 0.793 |  | 0.429 | 0.392 | 0.311 | 0.25 | 0.227 | 0.22 | 0.278 | 0.214
